# In US20140186468A1, “DIAGNOSING SUBSETS OF TRIPLE-NEGATIVE BREAST CANCER” (priority 2012, published 2014):
# Key:
# [1] = tested on: BOGA cells (BRCA1-deficient MCF7 cells that overcome growth arrest); assay: Western blot of 53BP1 protein levels in BOGA cells after treatment; type: cell-based, human; conditions: vitamin D 10^−7M or E-64 10 μM vs vehicle
# Method: (FIG. 2A) MCF7 cells were transduced with shRNAs specific for depletion of 53BP1 (sh 53BP1), BRCA1 (sh BRCA1), or both combined. After selection (puromycin and/or G418), BRCA1, 53BP1, and CTSL levels were monitored by western. […] (FIG. 2C) Control and BOGA cells were transduced with sh CTSL or sh scr and the levels of CTSL, BRCA1, and 53BP1 monitored by western blot. […] (FIG. 2E) Control or BOGA cells were incubated with the broad cathepsin inhibitor E-64 (10 μM) or with vehicle (H2O), and the levels of 53BP1 and CTSL monitored by western blot.
# BGS was the vehicle in control media.
# Cells were incubated with the broad spectrum cathepsin inhibitor E-64 (E3132, Sigma-Aldrich) diluted in water at a concentration of 10 μM for 24 hours.
# Briefly, cells were washed twice with PBS, and incubated in CSK I buffer (10 mM PIPES pH6.8, 100 mM NaCl, 300 mM sucrose, 3 mM MgCl2, 1 mM EGTA, and 0.5% Triton X-100) for 5 minutes. Coverslips were washed 5 times with cold PBS and fixed in modified STF buffer (150 mM 2-Bromo-2-nitro-1,3,-propanediol, 108 mM diazolidinyl urea, 10 mM Na citrate, and 50 nM EDTA pH 5.7) for 30 minutes at room temperature. Coverslips were then washed twice with cold PBS and permeabilized (PB buffer: 100 mM Tris-HCl pH 7.4, 50 mM EDTA pH 8.0, and 0.5% Triton X-100) for 15 minutes at room temperature followed by 2 washes in PBS. […]
# [2] = tested on: BOGA cells; assay: Analysis of aberrant chromosomes in metaphase spreads; type: cell-based, human
# Method: Cells collected 24 hr post-IR were analyzed for genomic instability by quantitating the percentage of metaphases presenting with chromosomal aberrations, as shown in the images. N, number of independent experiments (50 metaphases analyzed per condition in each experiment). […] (FIG. 5C) Control and BOGA cells were incubated with the cathepsin inhibitor E-64 or vehicle control (C) for 24 hr prior to IR, and the extent of genomic instability assessed as in FIG. 5B. […] Treatment protocol was as in FIG. 5B. […] Treatment performed as in FIG. 5C. […] All values expressed as mean±SEM. N, number of independent experiments; *p value of statistical significance (*p≦0.05).
# Cells were treated with the PARPi EB-47 (E8405, Sigma-Aldrich) diluted in water at a concentration of 1.2 μg/mL for 48 hours.
# [3] = tested on: BOGA cells; assay: Relative cell numbers 4 days after IR (recovery from IR); type: cell-based, human; conditions: 4 days after combined treatment with IR
# [4] = tested on: OH mammary carcinoma system; conditions: mouse model; cited from earlier work
# [5] = tested on: MEFs; conditions: cited from earlier work
# [6] = cited from earlier work
structure (smiles),measurement,setting,value
CC(C)C[C@H](NC(=O)[C@H]1O[C@@H]1C(=O)O)C(=O)NCCCCN=C(N)N [E-64],53BP1 protein levels (western blot),[1],increased levels of 53BP1 protein
same,percentage of metaphases with aberrant chromosomes after IR,"[2]; treated 24 hr prior to 2 Gy, analysed 24 hr post-IR",markedly increased genomic instability after IR
same,recovery from IR (relative cell numbers),[3],significantly reduced their recovery from IR
NC(=S)N/N=C(/c1cccc(O)c1)c1cccc(Br)c1 [KGP94],malignant breast tumour growth delay,[4],showed great promise in this mouse model
Nc1ncnc2c1ncn2[C@@H]1O[C@H](C(=O)N2CCN(CC(=O)Nc3cccc4c3CNC4=O)CC2)[C@@H](O)[C@H]1O [PARPi],"genomic instability (metaphases with chromosomal aberrations), PARPi alone",[2]; EB-47 1.2 μg/mL for 48 hr,does not result in profound genomic instability
"C=C1/C(=C\C=C2/CCC[C@]3(C)[C@@H]([C@H](C)CCCC(C)(C)O)CC[C@@H]23)C[C@@H](O)C[C@@H]1O [vitamin D, 1α,25-dihydroxyvitamin D3]",53BP1 protein stability,[5],stabilizes 53BP1 protein in MEFs
same,CTSL activity,[5],inhibits CTSL activity
same,intake in published cases of toxicity involving hypercalcemia,[6]; cases with known dose and 25-hydroxy-vitamin D levels,"40,000 IU per day"
same,sustained intake producing overt toxicity,"[6]; healthy adults, after several months",more than 1250 micrograms/day
